# Where “and” joins values, the source holds several entries; their conditions need not be identical. Identical values can stand only once.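 A five-concentration, 48-hour dose response in 96-well plates underlies each endpoint, interpolated linearly between surrounding concentrations. GI50: concentration for 50% inhibition of growth. TGI is the concentration that stops growth completely.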
# Columns and labels:
# Test in all cases: inhibition of tumour cell growth, NCI panel, 48 h
# NCI-H460 lung = tested on: NCI-H460 lung
# NCI-H522 lung = tested on: NCI-H522 lung
# SN12C renal = tested on: SN12C renal
# SF-295 CNS = tested on: SF-295 CNS
# K-562 leukemia = tested on: K-562 leukemia
# ACHN renal = tested on: ACHN renal
# TK-10 renal = tested on: TK-10 renal
# RXF 393 renal = tested on: RXF 393 renal
# HS 578T breast = tested on: HS 578T breast
# MCF7 breast = tested on: MCF7 breast
Structure (SMILES),GI50 (NCI-H460 lung) [µM],TGI (NCI-H460 lung),GI50 (NCI-H522 lung) [µM],TGI (NCI-H522 lung) [µM],GI50 (SN12C renal) [µM],TGI (SN12C renal),GI50 (SF-295 CNS) [µM],TGI (SF-295 CNS) [µM],GI50 (K-562 leukemia) [µM],TGI (K-562 leukemia) [µM],GI50 (ACHN renal) [µM],TGI (ACHN renal),GI50 (TK-10 renal) [µM],TGI (TK-10 renal),GI50 (RXF 393 renal) [µM],TGI (RXF 393 renal),GI50 (HS 578T breast) [µM],TGI (HS 578T breast),TGI (MCF7 breast)
CCC[CH2][Sn]1([CH2]CCC)[O]C(=O)CN=C(C)c2ccccc2[O]1,1.79,3.55 µM,0.179,0.369,1.13,2.34 µM,1.48,2.86,0.289,4.74,0.881,2.13 µM,0.586,1.78 µM,0.222,0.786 µM,,,
COc1ccc(CN2C(=O)/C(=C\C(=O)c3ccc(OCCN4CCCC4)cc3)c3ccccc32)cc1,2.03,3.8 µM,,,,,14.8,36.8,2.05,6.03,1.66,3.02 µM,1.74,3.33 µM,1.95,3.66 µM,14.3,54.6 µM,
COC(=O)C(=O)C(C#N)c1cccc(Cl)c1 (centres undefined),,> 100 µM,,> 100,,> 100 µM,,> 100,,> 100,,> 100 µM,,> 100 µM,,> 100 µM,,,
C=C[C@H]1CN2CCc3c([nH]c4c([C@@H]5CCCN5C)c(O)ccc34)[C@@H]2C[C@@H]1C[C@H]1c2[nH]c3ccccc3c2CCN1C,,3.1 µM and 2.99 µM,,3.66,,3.13 µM and 3.39 µM,,3.05,,,,3.39 µM and 3.1 µM and 3.32 µM,0.031,0.993 µM and 2.98 µM and 3.44 µM,,0.913 µM and 1.52 µM,,3.04 µM and 3.39 µM,3.66 µM and 4.3 µM
CC12CCCC(C#N)(C1)OC2=O (centres undefined),,> 100 µM,,> 100,,> 100 µM,,> 100,,> 100,,> 100 µM,,> 100 µM,,> 100 µM,,,
Cc1ccccc1C=NC12CC3CC(CC(C3)C1)C2,,> 100 µM,,> 100,,> 100 µM,,> 100,,> 100,,> 100 µM,,> 100 µM,,> 100 µM,,,
CC1NC(C(=O)O)Cc2cc(O)c(O)cc21 (centres undefined),,> 100 µM,,> 100,,> 100 µM,,> 100,,,,> 100 µM,,> 100 µM,,> 100 µM,,> 100 µM,> 100 µM
O=C(CN(Cc1ccccc1)Cc1ccccc1)N1CCc2c([nH]c3ccccc23)C1c1cccnc1 (centres undefined),,89.9 µM,,73.6,,8.64 µM,,> 100,,> 100,,> 100 µM,,> 100 µM,,,,,
O=CC1CCC=CC1NC(=O)OCc1ccccc1 (centres undefined),,> 100 µM,,> 100,,> 100 µM,,> 100,,> 100,,> 100 µM,,> 100 µM,,> 100 µM,,,
N#CC(C(=O)/C(=N/NC(=O)c1ccccc1O)C(C#N)c1ccc(Br)cc1)c1ccc(Br)cc1 (centres undefined),,40 µM,,27.7,,21.9 µM,,28.6,,> 100,,26.7 µM,,39.1 µM,,16 µM,,,
O=C1C(Cl)=C(Cl)C(=O)N1c1ccccc1Cl,,> 100 µM,,22.7,,> 100 µM,,> 100,,> 81,,> 100 µM,,> 100 µM,,> 100 µM,,,

# Reference: PubChem BioAssay (NCI)
